# In patent US20250326739A1, “CD38 MODULATORS AND USES THEREOF” (Aeovian Pharmaceuticals, Inc., priority 2022, published 2025):
# Where a name gives a salt, the structure may show the parent alone.
# Tests used:
# human CD38 = human CD38 (Homo sapiens (Human), UniProt P28907); assay: NAD+ cyclase activity assay with human recombinant CD38 protein; type: biochemical; conditions: 1.9 nM human CD38, 15.8 μM e-NAD substrate, fluorescence read-out
# Protocol: (§1) Example 5: NAD^+ Cydase Activity Assay with Human or Mouse Recombinant CD38 Protein
# (§2) The following assay was used to determine the ability of compounds of the invention to inhibit the hydrolysis of NAD^+ by the human or mouse enzyme, CD38.
# (§3) Reaction buffer: 40 mM HEPES/NaOH pH 7.5, 250 mM sucrose, 0.01% Tween
# (§4) Final concentrations: 0.6 nM mouse CD38 (4947-AC, Bio-Techne GmbH) 1.9 nM human CD38 (AVI2404, Bio-Techne GmbH)
# (§5) Substrate: 15.8 μM Nicotinamide 1,N6-ethenoadenine dinucleotide (E-NAD)
# (§6) Read-out: Fluorescence intensity (extinction 300 nm/emission 410 nm)
# (§7) Required reaction buffer, required CD38 concentration in reaction buffer and required e-NAD concentration in reaction buffer were prepared. Thereafter, 8 μL of CD38 in reaction buffer were added to High Control and compound concentration wells in 384 well plate (Corning #4514, 384 well, nonbinding surface, low volume, round bottom) and 8 μL of reaction buffer to Low Control. Compound dilutions were transferred via pintool technology that transfers 42.5 nL compound dilutions (12-point dose-response with factor three dilutions in 100% DMSO) well-to-well. Plate was subsequently shaken for 15 s at 1450 rpm and sealed for incubation for 30 min at room temperature. Thereafter, 2 μL of e-NAD in reaction buffer were added with Integra Voyager. After shaking for 15 s at 1450 rpm, plate was sealed, and assay signal was measured continuously with PHERAstar® fluorescence intensity module (extinction 300 nm/emission 410 nm).
# (§8) Dose-response curves were constructed using twelve-point factor three dilutions in triplicates per plate. High control (full enzyme activity) was set to assay signal of CD38 and e-NAD in presence of vehicle (DMSO) and Low control (full enzyme inhibition) was set to assay signal of e-NAD and vehicle (DMSO) in absence of CD38. For data analysis, fluorescent signal of traces corresponding to each compound concentration and High and Low control was monitored over time. Each run, High Control (full enzyme activity) was fitted to Linear equation via GraphPad Prism to determine CD38 activity from the slope and determine the time interval of linear phase of reaction to account for minor fluctuations. Thereafter, slopes of all compound concentrations were determined via fitting to same linear equation (GraphPad Prism) over the same time interval as determined for High control. Percentage inhibition was calculated via normalization to High and Low Control via the equation: %−inhibition=100*(1−((Sample−Low control)/(High control−Low control))) Half maximal inhibitory concentration (IC50) values are yielded from the inflection point of the corresponding curve by fitting of resulting percentage inhibition values to standard equation (4 Parameter Logistic Model or Sigmoidal Dose-Response Model) via Excel Fit. Unless otherwise stated, fitting of curves was fixed to 100%-inhibition and unlocked for 0%-inhibition.
# mouse CD38 = mouse CD38 (Mus musculus (Mouse), UniProt P56528); assay: NAD+ cyclase activity assay with mouse recombinant CD38 protein; type: biochemical; conditions: 0.6 nM mouse CD38, 15.8 μM e-NAD substrate, fluorescence read-out
# Protocol: as §1, §2, §3, §4, §5, §6, §7, §8
# Sequence of mouse CD38 (P56528 whole entry): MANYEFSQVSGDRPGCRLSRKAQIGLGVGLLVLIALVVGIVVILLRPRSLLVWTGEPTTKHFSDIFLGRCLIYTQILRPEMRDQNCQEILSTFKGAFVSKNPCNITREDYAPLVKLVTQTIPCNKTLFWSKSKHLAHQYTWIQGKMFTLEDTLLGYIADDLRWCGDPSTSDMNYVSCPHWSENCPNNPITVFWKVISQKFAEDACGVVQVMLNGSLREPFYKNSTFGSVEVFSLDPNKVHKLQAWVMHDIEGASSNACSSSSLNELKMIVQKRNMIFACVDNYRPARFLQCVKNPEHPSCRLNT
# Sequence of human CD38 (P28907 whole entry): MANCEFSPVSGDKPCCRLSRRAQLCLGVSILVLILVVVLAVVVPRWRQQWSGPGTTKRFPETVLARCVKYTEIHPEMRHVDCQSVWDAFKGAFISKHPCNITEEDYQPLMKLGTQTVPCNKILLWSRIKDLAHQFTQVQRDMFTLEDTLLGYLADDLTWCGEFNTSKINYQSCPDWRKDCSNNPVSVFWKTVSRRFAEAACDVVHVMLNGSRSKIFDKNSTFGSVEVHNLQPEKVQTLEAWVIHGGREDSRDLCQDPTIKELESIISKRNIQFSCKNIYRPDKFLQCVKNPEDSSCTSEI
IC50 (human CD38),IC50 (mouse CD38),Compound
100 to 1000 nM,1 to 10 nM,"Cc1cc(C(=O)N[C@H]2CCOC2)nc(-n2ccnc2)c1 [Compound 38A, (S)-6-(1H-Imidazol-1-yl)-4-methyl-N-(tetrahydrofuran-3-yl)picolinamide]"
> 1000 nM,> 100 nM,"Cc1cc(C(=O)N[C@H]2CCNC2)nc(-n2ccnc2)c1 [Compound 41A, (S)-6-(1H-Imidazol-1-yl)-4-methyl-N-(pyrrolidin-3-yl)picolinamide hydrochloride]"
30 to 100 nM,1 to 10 nM,"Cc1cc(C(=O)N[C@@H]2CCOC2)nc(-n2ccnc2)c1 [Compound 42A, (R)-6-(1H-Imidazol-1-yl)-4-methyl-N-(tetrahydrofuran-3-yl)picolinamide]"
< 30 nM,< 1 nM,"Cc1cc(C(=O)N[C@@H]2CCCOC2)nc(-n2ccnc2)c1 [Compound 44A, (R)-6-(1H-Imidazol-1-yl)-4-methyl-N-(tetrahydro-2H-pyran-3-yl)picolinamide]"
100 to 1000 nM,1 to 10 nM,"Cc1cc(C(=O)N[C@H]2CCCOC2)nc(-n2ccnc2)c1 [Compound 45A, (S)-6-(1H-Imidazol-1-yl)-4-methyl-N-(tetrahydro-2H-pyran-3-yl)picolinamide]"
> 1000 nM,10 to 100 nM,"Cc1cc(C(=O)N[C@H]2CCCNC2)nc(-n2ccnc2)c1 [Compound 48A, (S)-6-(1H-Imidazol-1-yl)-4-methyl-N-(piperidin-3-yl)picolinamide dihydrochloride]"
> 1000 nM,> 100 nM,"Cc1cc(C(=O)N[C@@H]2CCCNC2)nc(-n2ccnc2)c1 [Compound 51A, (R)-6-(1H-Imidazol-1-yl)-4-methyl-N-(piperidin-3-yl)picolinamide dihydrochloride]"
> 1000 nM,> 100 nM,"Cc1cc(C(=O)N[C@@H]2CCNC2)nc(-n2ccnc2)c1 [Compound 52A, (R)-6-(1H-Imidazol-1-yl)-4-methyl-N-(pyrrolidin-3-yl)picolinamide dihydrochloride]"
100 to 1000 nM,1 to 10 nM,"Cc1cc(C(=O)N[C@H]2CCS(=O)(=O)C2)nc(-n2ccnc2)c1 [Compound 55A, (S)—N-(1,1-Dioxidotetrahydrothiophen-3-yl)-6-(1H-imidazol-1-yl)-4-methylpicolinamide]"
> 1000 nM,10 to 100 nM,"Cc1cc(C(=O)N[C@@H]2CCCN(C)C2)nc(-n2ccnc2)c1 [Compound 59A, (R)-6-(1H-Imidazol-1-yl)-4-methyl-N-(1-methylpiperidin-3-yl)picolinamide]"

# More lines, now with the values behind:
Compound,IC50 (human CD38),IC50 (mouse CD38)
"Cc1cc(C(=O)NC2CCCCCC2)nc(-n2ccnc2)c1 [Compound 34A, N-Cycloheptyl-6-(1H-imidazol-1-yl)-4-methylpicolinamide]",< 30 nM,1 to 10 nM
"Cc1cc(C(=O)NC2CCC(F)(F)C2)nc(-n2ccnc2)c1 (centres unmarked) [Compound 35A, N-(3,3-Difluorocyclopentyl)-6-(1H-imidazol-1-yl)-4-methylpicolinamide]",< 30 nM,1 to 10 nM
"Cc1cc(C(=O)NC2CCCS(=O)(=O)C2)nc(-n2ccnc2)c1 (centres unmarked) [Compound 36A, N-(1,1-Dioxidotetrahydro-2H-thiopyran-3-yl)-6-(1H-imidazol-1-yl)-4-methylpicolinamide]",100 to 1000 nM,1 to 10 nM
"Cc1cc(C(=O)N[C@@H]2CCN(C(=O)OC(C)(C)C)C2)nc(-n2ccnc2)c1 [Compound 43A, tert-Butyl (R)-3-(6-(1H-imidazol-1-yl)-4-methylpicolinamido)pyrrolidine-1-carboxylate]",< 30 nM,1 to 10 nM
"Cc1cc(C(=O)N[C@H]2CCN(S(C)(=O)=O)C2)nc(-n2ccnc2)c1 [Compound 46A, (S)-6-(1H-imidazol-1-yl)-4-methyl-N-(1-(methylsulfonyl)pyrrolidin-3-yl)picolinamide]",100 to 1000 nM,1 to 10 nM
"Cc1cc(C(=O)N[C@H]2CCCN(C(=O)OC(C)(C)C)C2)nc(-n2ccnc2)c1 [Compound 47A, tert-Butyl (S)-3-(6-(1H-imidazol-1-yl)-4-methylpicolinamido)piperidine-1-carboxylate]",100 to 1000 nM,1 to 10 nM
"Cc1cc(C(=O)N[C@@H]2CCCN(C(=O)OC(C)(C)C)C2)nc(-n2ccnc2)c1 [Compound 49A, tert-Butyl (R)-3-(6-(1H-imidazol-1-yl)-4-methylpicolinamido)piperidine-1-carboxylate]",30 to 100 nM,1 to 10 nM
"Cc1cc(C(=O)N[C@H]2CCCN(S(C)(=O)=O)C2)nc(-n2ccnc2)c1 [Compound 50A, (S)-6-(1H-Imidazol-1-yl)-4-methyl-N-(1-(methylsulfonyl)piperidin-3-yl)picolinamide]",100 to 1000 nM,1 to 10 nM
"Cc1cc(C(=O)N[C@@H]2CCN(S(C)(=O)=O)C2)nc(-n2ccnc2)c1 [Compound 53A, (R)-6-(1H-Imidazol-1-yl)-4-methyl-N-(1-(methylsulfonyl)pyrrolidin-3-yl)picolinamide]",100 to 1000 nM,1 to 10 nM
"Cc1cc(C(=O)N[C@@H]2CCCN(S(C)(=O)=O)C2)nc(-n2ccnc2)c1 [Compound 54A, (R)-6-(1H-Imidazol-1-yl)-4-methyl-N-(1-(methylsulfonyl)piperidin-3-yl)picolinamide]",30 to 100 nM,1 to 10 nM
"Cc1cc(C(=O)N[C@@H]2CCCN(C)C2=O)nc(-n2ccnc2)c1 [Compound 56A, (R)-6-(1H-Imidazol-1-yl)-4-methyl-N-(1-methyl-2-oxopiperidin-3-yl)picolinamide]",> 1000 nM,> 100 nM
"Cc1cc(C(=O)N[C@@H]2CCCS(=O)(=O)C2)nc(-n2ccnc2)c1 [Compound 57A, (R)—N-(1,1-Dioxidotetrahydro-2H-thiopyran-3-yl)-6-(1H-imidazol-1-yl)-4-methylpicolinamide]",30 to 100 nM,1 to 10 nM
"Cc1cc(C(=O)N[C@@H]2CCCNC2=O)nc(-n2ccnc2)c1 [Compound 58A, (R)-6-(1H-Imidazol-1-yl)-4-methyl-N-(2-oxopiperidin-3-yl)picolinamide]",> 1000 nM,10 to 100 nM
"Cc1cc(C(=O)N[C@H]2CCCNC2=O)nc(-n2ccnc2)c1 [Compound 60A, (S)-6-(1H-Imidazol-1-yl)-4-methyl-N-(2-oxopiperidin-3-yl)picolinamide]",100 to 1000 nM,1 to 10 nM
"Cc1cc(C(=O)NC2CCN(S(C)(=O)=O)CC2)nc(-n2ccnc2)n1 [Compound 61A, 2-(1H-Imidazol-1-yl)-6-methyl-N-(1-(methylsulfonyl)piperidin-4-yl)pyrimidine-4-carboxamide]",< 30 nM,< 1 nM
"O=C(N[C@@H]1CCCOC1)c1cc(C(F)(F)F)cc(-n2ccnc2)n1 [Compound 62A, (R)-6-(1H-imidazol-1-yl)-N-(tetrahydro-2H-pyran-3-yl)-4-(trifluoromethyl)picolinamide]",< 30 nM,1 to 10 nM
"Cc1cc(C(=O)N[C@@H]2CCC(=O)NC2=O)nc(-n2ccnc2)c1 [Compound 63A, (R)—N-(2,6-Dioxopiperidin-3-yl)-6-(1H-imidazol-1-yl)-4-methylpicolinamide]",> 1000 nM,10 to 100 nM
"Cc1cc(C(=O)N[C@@H]2CCC(C)(C)OC2)nc(-n2ccnc2)c1 [Compound 64A, (R)—N-(6,6-Dimethyltetrahydro-2H-pyran-3-yl)-6-(1H-imidazol-1-yl)-4-methylpicolinamide]",30 to 100 nM,1 to 10 nM
"Cc1cc(C(=O)N[C@H]2CCC(C)(C)OC2)nc(-n2ccnc2)c1 [Compound 65A, (S)—N-(6,6-Dimethyltetrahydro-2H-pyran-3-yl)-6-(1H-imidazol-1-yl)-4-methylpicolinamide]",100 to 1000 nM,1 to 10 nM
"Cc1cc(C(=O)N[C@H]2COCC(F)(F)C2)nc(-n2ccnc2)c1 [Compound 66A, (R)—N-(5,5-Difluorotetrahydro-2H-pyran-3-yl)-6-(1H-imidazol-1-yl)-4-methylpicolinamide]",30 to 100 nM,< 1 nM
"Cc1cc(C(=O)N[C@@H]2CCS(=O)(=O)C2)nc(-n2ccnc2)n1 [Compound 68A, (R)—N-(1,1-Dioxidotetrahydrothiophen-3-yl)-2-(1H-imidazol-1-yl)-6-methylpyrimidine-4-carboxamide]",< 30 nM,< 1 nM
